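Five compound concentrations were applied to cells in 96-well plates for 48 hours; endpoints were derived by simple linear interpolation of the resulting dose-response curve. Definition used: TGI = concentration required for complete inhibition of growth.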
Assays:
Assay in all cases: inhibition of tumour cell growth, NCI panel, 48 h
[1] = tested on: MDA-MB-435
[2] = tested on: MDA-N
[3] = tested on: DU-145 prostate
[4] = tested on: PC-3 prostate
[5] = tested on: MCF7 breast
[6] = tested on: CCRF-CEM leukemia
[7] = tested on: OVCAR-5 ovarian
[8] = tested on: OVCAR-3 ovarian
[9] = tested on: OVCAR-4 ovarian
[10] = tested on: SW-620 colon
[11] = tested on: SNB-75 CNS
[12] = tested on: HCT-15 colon
[13] = tested on: UO-31 renal
[14] = tested on: 786-0 renal
[15] = tested on: EKVX NSCLC
[16] = tested on: SF-539 CNS
[17] = tested on: NCI-H23 lung
[18] = tested on: U251 CNS
[19] = tested on: HT29 colon
[20] = tested on: SK-MEL-28 melanoma
[21] = tested on: COLO 205 colon
[22] = tested on: SK-MEL-2 melanoma
[23] = tested on: ACHN renal
[24] = tested on: CAKI-1 renal
[25] = tested on: HOP-62 NSCLC
[26] = tested on: NCI-H226 lung
[27] = tested on: A498 renal
[28] = tested on: SK-MEL-5 melanoma
[29] = tested on: HCC-2998 colon
[30] = tested on: HL-60(TB) leukemia
[31] = tested on: KM12 colon
[32] = tested on: HCT-116 colon
[33] = tested on: OVCAR-8 ovarian
[34] = tested on: NCI-H522 lung
[35] = tested on: RPMI-8226 leukemia
[36] = tested on: HOP-92 NSCLC
[37] = tested on: SNB-19 CNS
[38] = tested on: MOLT-4 leukemia
[39] = tested on: UACC-257 melanoma
[40] = tested on: T-47D breast
[41] = tested on: MALME-3M melanoma
[42] = tested on: SF-268 CNS
[43] = tested on: SK-OV-3 ovarian
[44] = tested on: M14 melanoma
[45] = tested on: RXF 393 renal
[46] = tested on: A549 NSCLC
[47] = tested on: BT-549 breast
[48] = tested on: IGROV1 ovarian
[49] = tested on: NCI/ADR-RES ovarian
[50] = tested on: SF-295 CNS
[51] = tested on: TK-10 renal
[52] = tested on: HS 578T breast
[53] = tested on: SN12C renal
[54] = tested on: MDA-MB-231 breast
[55] = tested on: K-562 leukemia
[56] = tested on: LOX IMVI melanoma
[57] = tested on: UACC-62 melanoma
[58] = tested on: NCI-H460 lung

Structure (SMILES): CCn1cc(C(=O)O)c(=O)c2cc3c(cc21)S(=O)(=O)CC3
- TGI [1]: > 100 µM
- TGI [2]: > 100 µM
- TGI [3]: > 100 µM
- TGI [4]: > 100 µM
- TGI [5]: > 100 µM
- TGI [6]: > 100 µM
- TGI [7]: > 100 µM
- TGI [8]: > 100 µM
- TGI [9]: > 100 µM
- TGI [10]: > 100 µM
- TGI [11]: > 100 µM
- TGI [12]: > 100 µM
- TGI [13]: > 100 µM
- TGI [14]: > 100 µM
- TGI [15]: > 100 µM
- TGI [16]: > 100 µM
- TGI [17]: > 100 µM
- TGI [18]: > 100 µM
- TGI [19]: > 100 µM
- TGI [20]: > 100 µM
- TGI [21]: > 100 µM
- TGI [22]: > 100 µM
- TGI [23]: > 100 µM
- TGI [24]: > 100 µM
- TGI [25]: > 100 µM
- TGI [26]: > 100 µM
- TGI [27]: > 100 µM
- TGI [28]: > 100 µM
- TGI [29]: > 100 µM
- TGI [30]: > 100 µM
- TGI [31]: > 100 µM
- TGI [32]: > 100 µM
- TGI [33]: > 100 µM
- TGI [34]: > 100 µM
- TGI [35]: > 100 µM
- TGI [36]: > 100 µM
- TGI [37]: > 100 µM
- TGI [38]: > 100 µM
- TGI [39]: > 100 µM
- TGI [40]: > 100 µM
- TGI [41]: > 100 µM
- TGI [42]: > 100 µM
- TGI [43]: > 100 µM
- TGI [44]: > 100 µM
- TGI [45]: > 100 µM
- TGI [46]: > 100 µM
- TGI [47]: > 100 µM
- TGI [48]: > 100 µM
- TGI [49]: > 100 µM
- TGI [50]: > 100 µM
- TGI [51]: > 100 µM
- TGI [52]: > 100 µM
- TGI [53]: > 100 µM
- TGI [54]: > 100 µM
- TGI [55]: > 100 µM
- TGI [56]: > 100 µM
- TGI [57]: > 100 µM
- TGI [58]: > 100 µM

Structure (SMILES): COc1ccc(/C=C2\CCC(CNc3ccc(OC)cc3)C2=O)cc1 (stereo not given)
- TGI [1]: 40.6 µM
- TGI [2]: 30.8 µM
- TGI [3]: > 65.4 µM
- TGI [4]: 37 µM
- TGI [5]: 13.3 µM
- TGI [6]: 29.9 µM
- TGI [7]: 38.1 µM
- TGI [8]: 31.6 µM
- TGI [9]: 45.7 µM
- TGI [10]: 12.9 µM
- TGI [11]: 94.5 µM
- TGI [12]: 20.4 µM
- TGI [13]: 36.1 µM
- TGI [14]: 23.2 µM
- TGI [15]: > 73.5 µM
- TGI [16]: 36.4 µM
- TGI [17]: 19 µM
- TGI [18]: 38.5 µM
- TGI [19]: 33.2 µM
- TGI [20]: 37.5 µM
- TGI [21]: 31.9 µM
- TGI [23]: 58.6 µM
- TGI [24]: 41 µM
- TGI [25]: > 100 µM
- TGI [26]: > 100 µM
- TGI [27]: > 66 µM
- TGI [28]: 35.2 µM
- TGI [29]: 48.1 µM
- TGI [30]: 17.5 µM
- TGI [31]: 23.8 µM
- TGI [32]: 23.2 µM
- TGI [33]: 36.3 µM
- TGI [34]: 11.6 µM
- TGI [35]: > 24 µM
- TGI [36]: 42.7 µM
- TGI [37]: > 59.2 µM
- TGI [38]: > 40.8 µM
- TGI [39]: 34.5 µM
- TGI [40]: 57.1 µM
- TGI [41]: 47.3 µM
- TGI [42]: 34.1 µM
- TGI [43]: > 100 µM
- TGI [44]: 34.9 µM
- TGI [45]: 29.9 µM
- TGI [46]: > 94.1 µM
- TGI [47]: 26.8 µM
- TGI [48]: 19.2 µM
- TGI [49]: > 100 µM
- TGI [50]: > 31.6 µM
- TGI [51]: 36 µM
- TGI [52]: > 100 µM
- TGI [53]: 33.1 µM
- TGI [54]: 35.7 µM
- TGI [55]: > 33.3 µM
- TGI [56]: 28 µM
- TGI [57]: 48 µM
- TGI [58]: > 85.3 µM

From PubChem BioAssay (NCI)
